{
  "source": "paper PMC8635125",
  "about": "“A Novel Dibenzoxazepine Attenuates Intracellular Salmonella Typhimurium Oxidative Stress Resistance” (Microbiology Spectrum, 2021)",
  "key": {"[1]": {"tested_on": "intracellular S. Typhimurium in RAW264.7 macrophages", "test": "microbe, parasite or virus in culture", "type": "cell-based, Salmonella enterica serovar Typhimurium", "settings": "for viability at 0.5 µM: TYPHIMURIUM, RAW264.7, read-out: viability of intracellular Salmonella compared to mock-treated cells", "protocol": "(§1) Overnight cultures of RFP-expressing S. Typhimurium were prepared for infection by 1:100 dilution in fresh LB broth and incubation for 2 h at 37°C. The bacteria were then collected by centrifugation at 6,000 × g for 3 min and suspended in phosphate-buffered saline (PBS; pH 7.2) to an optical density of 0.6 at 600 nm, which was equivalent to 5 × 10^8 CFU/mL. RAW264.7 macrophages were seeded in 96-well black clear-bottom plates (Greiner) and incubated for 20 h followed by infection with RFP-expressing S. Typhimurium at a multiplicity of infection (MOI) of 50 for 1 h. […] Afterward, the cells were washed and stained with CellTracker Green (Thermo Fisher Scientific) for 30 min in serum-free DMEM followed by fixation in 3.7% formaldehyde (Sigma-Aldrich) for 20 min and stained with 0.2 mg/L DAPI (4′,6-diamidino-2-phenylindole; AAT Bioquest) for 30 min. Images of individual wells were captured and analyzed using a high-content imaging system (ImageXpress Micro 4; Molecular Devices). The CC50 and 50% effective concentration (EC50) values against intracellular bacteria of each compound were determined using CalcuSyn software (Biosoft)."}, "[2]": {"test": "HCA cytotoxicity toward infected macrophages (nuclear staining)", "type": "cell-based, murine", "settings": "mouse, RAW264.7 macrophages infected with S. Typhimurium, infected RAW264.7 cells, read-out: 50% cytotoxic concentration (CC50) toward macrophages", "protocol": "as §1"}, "[3]": {"tested_on": "intracellular S. Typhimurium in RAW264.7 cells", "test": "CFU assay of bacterial growth in macrophages", "type": "cell-based, Salmonella enterica serovar Typhimurium", "settings": "submicromolar concentrations, with gentamicin 20 mg/L, 24 h", "protocol": "Overnight cultures of S. Typhimurium were diluted 1:100 in fresh LB broth and incubated for 2 h at 37°C. The bacteria were then collected and suspended in PBS to an OD600 of 0.6. RAW264.7 cells seeded in a 6-well plate were infected with S. Typhimurium at an MOI of 25 for 1 h. After infection, the cells were washed, exposed to 100 mg/L gentamicin for 1 h, and treated with SW14 (0.25 to 1 μM) in combination with 20 mg/L gentamicin for 24 h. Then, the infected cells were washed and lysed with 0.1% Triton X-100 in PBS for 10 min at 37°C to release the intracellular bacteria. The cell lysates were serially diluted in PBS, spread on LB agar plates, and incubated at 37°C for 18 h. The bacterial colonies on the plates were enumerated and expressed as CFU."}, "[4]": {"tested_on": "multidrug-resistant S. Typhimurium isolates 0911R and NL08.10 in RAW264.7 cells", "test": "HCA of intracellular multidrug-resistant isolates in macrophages", "type": "cell-based, Salmonella enterica serovar Typhimurium", "settings": "0911R and NL08.10, gentamicin, 24 h", "protocol": "as §1"}, "[5]": {"tested_on": "ciprofloxacin-resistant S. Typhimurium strains SA10 and SB10 in RAW264.7 cells", "test": "HCA of intracellular ciprofloxacin-resistant strains in macrophages", "type": "cell-based, Salmonella enterica serovar Typhimurium", "settings": "SA10 and SB10, gentamicin, 24 h", "protocol": "as §1"}, "S. Typhimurium": {"tested_on": "S. Typhimurium", "test": "Bacterial growth assay (OD600)", "type": "cell-based, Salmonella enterica serovar Typhimurium", "settings": "for concentration inhibiting bacterial growth (OD600): 24 h", "protocol": "Overnight-grown S. […] The plate was incubated at 37°C, and bacterial growth was monitored by measuring the absorbance at 600 nm with a VersaMax Microplate reader (Molecular Devices) at designated times for 24 h."}, "[6]": {"tested_on": "S. Typhimurium ATCC 14028", "test": "MIC assay (broth microdilution)", "type": "cell-based, Salmonella Typhimurium", "protocol": "(§2) The minimal inhibitory concentration (MIC) of each test compound against the individual bacterial strains was determined by the broth microdilution method following the guidelines recommended by the Clinical and Laboratory Standards Institute (CLSI) ([27])."}, "S. Typhimurium NL08.10": {"tested_on": "S. Typhimurium NL08.10", "test": "MIC assay (broth microdilution)", "type": "cell-based, Salmonella Typhimurium", "settings": "Salmonella enterica, TYPHIMURIUM", "protocol": "as §2"}, "S. Typhimurium SA10": {"tested_on": "S. Typhimurium SA10", "test": "MIC assay (broth microdilution)", "type": "cell-based, Salmonella Typhimurium", "settings": "Salmonella enterica, TYPHIMURIUM; Table S1(B), SA10", "protocol": "as §2"}, "S. Typhimurium SB10": {"tested_on": "S. Typhimurium SB10", "test": "MIC assay (broth microdilution)", "type": "cell-based, Salmonella Typhimurium", "settings": "Salmonella enterica, TYPHIMURIUM", "protocol": "as §2"}, "S. Typhimurium 0911R": {"tested_on": "S. Typhimurium 0911R", "test": "microbe, parasite or virus in culture", "type": "cell-based, Salmonella Typhimurium", "settings": "Salmonella enterica, TYPHIMURIUM", "protocol": "as §2"}, "[7]": {"tested_on": "S. Typhimurium ATCC 14028", "test": "Analysis of bacterial susceptibility to H2O2 (CFU)", "type": "cell-based, Salmonella enterica serovar Typhimurium", "settings": "SW14 0.5 μM, 1 h", "protocol": "Overnight-grown S. Typhimurium cultured in LB medium were diluted 1:50 in LPM medium or LB medium followed by incubation at 37°C for 3 h. The bacterial suspension was adjusted to an OD600 of 0.2 in fresh LPM medium or LB medium, exposed to SW14 and H2O2 for 1 h at 37°C with agitation, then serially diluted 10-fold in PBS, and spread on LB agar plates. After incubation at 37°C for 18 h, the number of colonies was counted, and the results are expressed as CFU/mL."}, "[8]": {"tested_on": "S. Typhimurium ATCC 14028", "test": "Efflux pump activity (Hoechst 33342 accumulation assay)", "type": "cell-based, Salmonella enterica serovar Typhimurium", "settings": "data not shown in text; Fig. S2", "protocol": "Figure S2. The accumulation of Hoechst 33342 in S. Typhimurium ATCC 14028 treated\nwith escalated concentrations of SW14 for 1 h in the LPM medium was measured using a\nfluorescence microplate reader. The data are presented as the mean ± SD (n = 3 per group).\nns: non-significant, P > 0.05; ***P < 0.001; ****P < 0.0001.\nHoechst 33342 accumulation assay\nOvernight-grown S. Typhimurium cultured in LB medium was diluted 1:50 in LPM\nmedium and incubated at 37°C for 3 h. The bacterial suspension was adjusted to an OD600\nof 0.1 in fresh LPM medium supplemented with 2.5 µM Hoechst 33342 (Thermo Fisher\nScientific) followed by treatment of mock (DMSO) or SW14 (0.03125 – 8 µM in DMSO)\nfor 1 h. Bacterial cells which were treated with high temperature (90° C) for 10 min (heat-\nkilled) rapidly accumulated Hoechst 33342 and served as positive control. Fluorescence\nwas monitored on a SpectraMax M5 (Molecular devices) with a 355 nm excitation filter\nand 460 nm emission filter. The percent inhibition was calculated by the equation: 100 ´\n[(SW14-treated – mock) / (Heat-killed – mock)]."}},
  "note": "Where two headings read alike, the source gives them in different places.",
  "data": [
    {"smiles": "Clc1ccc2c(c1)C(NCCN1CCNCC1)=Nc1ccccc1O2", "note": "[SW14]", "values": [
      {"measurement": "inhibitory activity of ciprofloxacin and cefixime on intracellular Salmonella in combination with SW14", "setting": "[1]; 0.5 μM SW14, 24 h, equal to the antibiotic at 2-fold concentration", "result": "enhanced"},
      {"measurement": "selectivity index (SI; CC50/EC50)", "setting": "[1]; CC50 RAW264.7 / EC50 intracellular Salmonella", "result": 47},
      {"measurement": "susceptibility of intracellular Salmonella to SW14 after Atg7 knockdown", "setting": "[1]; RAW264.7 shATG7 clones vs empty vector, 24 h", "result": "more susceptible"},
      {"measurement": "viability at 0.5 µM", "setting": "[1]; Salmonella enterica, 3-MA 10 mM for 1 h, then SW14 0.5 μM for 24 h, HCA", "result": 36.8, "unit": "%"},
      {"measurement": "viability at 0.5 µM", "setting": "[1]; Salmonella enterica, SW14 0.5 μM alone, 24 h, HCA", "result": 45, "unit": "%"},
      {"measurement": "EC50", "setting": "[1]; Salmonella enterica, RFP-expressing S. Typhimurium in RAW264.7, 24 h, with gentamicin 20 mg/L, HCA, read-out: 50% effective concentration (EC50) against intracellular Salmonella", "result": 0.5, "unit": "µM"},
      {"measurement": "suppressive effect on intracellular S. Typhimurium in the presence of ROS scavengers", "setting": "[1]; with NAC 10 mM or GSH 10 mM", "result": "reversed"},
      {"measurement": "CC50 at 24 h", "setting": "[2]", "result": 23.5, "unit": "µM"},
      {"measurement": "viability of intracellular Salmonella (CFU assay)", "setting": "[3]", "result": "potent suppressive effect"},
      {"measurement": "intracellular replication of MDR S. Typhimurium isolates", "setting": "[4]", "result": "remained susceptible"},
      {"measurement": "intracellular proliferation of ciprofloxacin-resistant isolates", "setting": "[5]", "result": "highly sensitive"},
      {"measurement": "concentration inhibiting bacterial growth (OD600)", "setting": "S. Typhimurium; Luria-Bertani (LB) medium", "result": "> 64", "unit": "µM"},
      {"measurement": "growth of Salmonella in LPM medium", "setting": "S. Typhimurium; acidic low-phosphate, low-magnesium (LPM) medium", "result": "unable to detect any significant change"},
      {"measurement": "concentration inhibiting bacterial growth in broth", "setting": "S. Typhimurium; broth", "result": "> 64", "unit": "µM"},
      {"measurement": "concentration inhibiting bacterial growth (OD600)", "setting": "S. Typhimurium; cell culture medium (DMEM + 10% FBS)", "result": "> 64", "unit": "µM"},
      {"measurement": "MIC", "setting": "[6]; Salmonella enterica", "result": "> 64", "unit": "µg/mL"},
      {"measurement": "MIC", "setting": "[6]; Table S1(B), ATCC 14028", "result": "> 64", "unit": "µg/mL"},
      {"measurement": "MIC", "setting": "S. Typhimurium NL08.10", "result": "> 64", "unit": "µg/mL"},
      {"measurement": "MIC", "setting": "S. Typhimurium SA10", "result": "> 64", "unit": "µg/mL"},
      {"measurement": "MIC", "setting": "S. Typhimurium SB10", "result": "> 64", "unit": "µg/mL"},
      {"measurement": "MIC", "setting": "S. Typhimurium 0911R", "result": "> 64", "unit": "µg/mL"},
      {"measurement": "susceptibility of S. Typhimurium to H2O2", "setting": "[7]; minimal LPM medium", "result": "significantly increased"},
      {"measurement": "susceptibility of S. Typhimurium to H2O2", "setting": "[7]; nutrient-rich LB broth", "result": "not in nutrient-rich LB broth"},
      {"measurement": "efflux pump activity in S. Typhimurium", "setting": "[8]", "result": "efflux pump suppressive effect"}
    ]}
  ]
}
